Source: PMC9610999, “Itraconazole-Induced Increases in Gilteritinib Exposure Are Mediated by CYP3A and OATP1B” (Molecules, 2022)
Where two headings read alike, the source gives them in different places.

How the values were obtained:
[1] = biological target: T1, human OATP1B1 (SLCO1B1) (Homo sapiens, UniProt Q9Y6L6); experiment: Transport inhibition assay: EβG uptake in OATP1B1 overexpressing HEK293 cells; assay type: cell-based
T1 construct: expressed in transfected cells; host or cells: HEK293
T1 sequence (Q9Y6L6 1-691): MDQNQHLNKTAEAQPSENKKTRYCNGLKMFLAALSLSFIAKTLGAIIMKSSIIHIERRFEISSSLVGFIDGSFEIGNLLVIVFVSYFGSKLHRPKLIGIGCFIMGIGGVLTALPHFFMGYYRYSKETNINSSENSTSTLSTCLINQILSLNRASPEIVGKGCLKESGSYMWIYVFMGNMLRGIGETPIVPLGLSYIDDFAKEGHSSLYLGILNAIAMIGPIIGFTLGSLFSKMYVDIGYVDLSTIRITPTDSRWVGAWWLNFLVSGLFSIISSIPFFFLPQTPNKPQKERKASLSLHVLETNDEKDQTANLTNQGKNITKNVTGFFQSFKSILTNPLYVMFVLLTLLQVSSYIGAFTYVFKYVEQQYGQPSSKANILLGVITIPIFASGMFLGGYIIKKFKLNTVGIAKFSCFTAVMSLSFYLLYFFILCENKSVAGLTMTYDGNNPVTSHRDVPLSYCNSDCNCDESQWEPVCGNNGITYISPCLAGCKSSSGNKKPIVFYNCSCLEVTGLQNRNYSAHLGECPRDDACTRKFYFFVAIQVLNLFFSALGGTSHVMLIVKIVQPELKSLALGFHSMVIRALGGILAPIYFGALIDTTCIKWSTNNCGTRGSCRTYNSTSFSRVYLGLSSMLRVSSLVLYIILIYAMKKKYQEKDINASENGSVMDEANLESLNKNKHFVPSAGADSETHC
Method: Human embryonic kidney (HEK293) cells stably transfected with human OATP1B1 (SLCO1B1) cDNA, or an empty control vector were established and cultured as previously described. Cells were maintained in DMEM supplemented with 10% FBS, 50 µg/mL hygromycin B, 15 µg/mL blasticidin, and maintained in a humidified incubator at 37 °C with 5% CO2. Prior to plating, 24-well tissue culture plates (Thermo Fisher Scientific) were coated with poly-d-lysine. Seeding media was prepared using phenol red-free DMEM with 10% FBS with no selection agents. To the seeding media, […] of doxycycline was added to induce expression of OATP1B1.
OATP1B1 overexpressing cells and vector control cells were plated in 24-well tissue culture plates at a volume of 0.5 mL (containing 2 × 10^6 cells/mL) per well. Plates were returned to an incubator at 37 °C and transport assays were conducted 24 h later. Transport activity was measured using EβG, a prototypical substrate of OATP1B1. Experiments were conducted using phenol red- and serum-free DMEM. Intracellular levels of total radioactivity originating from EβG were assessed by liquid scintillation counting. The resulting counts were normalized to total protein levels as determined by a Pierce protein assay. The influence of gilteritinib, itraconazole, keto-itraconazole, or hydroxy-itraconazole on OATP1B1-mediated transport was assessed following a 15 min pre-incubation at various concentrations of test inhibitors followed by co-incubation of test inhibitors with EβG. Inhibition of transport activity by gilteritinib was determined by comparing the accumulation of EβG in the presence of gilteritinib, itraconazole, keto-itraconazole, or hydroxy-itraconazole to that of EβG in the presence of only the control vehicle, DMSO. The final concentration of DMSO in media was less than 0.2% in all in vitro experiments.

[2] = human, in vivo; cited from earlier work
[3] = cited from earlier work
[4] = biological target: T2, OATP1B2 (Mus musculus, UniProt Q9JJL3); experiment: Transport inhibition assay: 8-FcA uptake in OATP1B2 overexpressing HEK293 cells; assay type: cell-based; settings: OATP1B2 overexpressing HEK293 cells vs vector control; fluorescent probe 8-FcA; read-out: IC50, inhibition of OATP1B2 function
T2 construct: expressed in transfected cells; host or cells: HEK293
T2 sequence (Q9JJL3 1-689): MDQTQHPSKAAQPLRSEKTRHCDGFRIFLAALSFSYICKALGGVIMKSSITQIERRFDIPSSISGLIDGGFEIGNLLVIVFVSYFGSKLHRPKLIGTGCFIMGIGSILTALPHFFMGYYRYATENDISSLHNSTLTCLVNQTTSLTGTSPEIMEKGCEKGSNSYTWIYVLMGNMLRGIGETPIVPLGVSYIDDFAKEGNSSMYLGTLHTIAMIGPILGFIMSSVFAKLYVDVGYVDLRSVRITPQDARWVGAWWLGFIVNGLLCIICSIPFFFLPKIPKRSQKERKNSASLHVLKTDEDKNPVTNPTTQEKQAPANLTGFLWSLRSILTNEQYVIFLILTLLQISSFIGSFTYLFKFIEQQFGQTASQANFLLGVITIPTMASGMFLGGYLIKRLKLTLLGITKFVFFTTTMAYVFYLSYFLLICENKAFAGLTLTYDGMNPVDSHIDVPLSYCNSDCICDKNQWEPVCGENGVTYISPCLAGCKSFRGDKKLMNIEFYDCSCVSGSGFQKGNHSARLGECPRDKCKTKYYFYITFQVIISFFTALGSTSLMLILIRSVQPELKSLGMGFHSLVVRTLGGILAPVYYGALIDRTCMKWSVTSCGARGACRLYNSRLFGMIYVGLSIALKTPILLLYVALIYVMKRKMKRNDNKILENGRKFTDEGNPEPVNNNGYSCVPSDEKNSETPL
Method: Transport inhibition assays using 8-(2-[fluoresceinyl]-aminoethylthio)-adenosine-3′,5′-cyclic-monophosphate (8-FcA) were completed as previously described. OAT1B2 overexpressing cells and vector control cells were grown to confluency in a 96-well plate. Cells were washed, then incubated for 15 min with 100 μL phenol red-free DMEM containing gilteritinib or vehicle (DMSO). The media was removed, then cells were incubated with 45 μL media containing 25 μM 8-FcA for 30 min. The media was removed and cells were washed three times with ice cold PBS. Fluorescence was measured on a plate reader at excitation and emission wavelengths of 485 and 535 nm, respectively. Cells were lysed with 0.2% nitric acid at 4 °C overnight and a Pierce protein assay was used to normalize the data to total protein.

Question: What does the source list for `CCc1nc(C(N)=O)c(Nc2ccc(N3CCC(N4CCN(C)CC4)CC3)c(OC)c2)nc1NC1CCOCC1` [Gilteritinib]?
Answer: Mechanism of inhibition of OATP1B transport of EβG ([1]; Dixon plot): noncompetitively inhibits; IC50 ([1]; OATP1B1 overexpressing HEK293 cells vs vector control, radiolabeled EβG, 15 min pre-incubation, read-out: IC50, inhibition of OATP1B1-mediated cellular accumulation of EβG): 2230 nM; Ki ([1]; gilteritinib 0.3–8.3 µM, EβG 0.2, 2, 20 µM, estimated, read-out: Ki (inhibition constant), EβG uptake by OATP1B1, Dixon plot): 1600 nM; Increase in gilteritinib exposure when co-administered with itraconazole [2]: 2.2 fold; Maximum tolerated dose ([3]; ref 4): 300 mg; Maximum tolerated dose ([3]; ref 29): 200 mg; IC50 [4]: 1830 nM
